Measurements published in PMC12060420 (Cell Communication and Signaling : CCS, 2025).

Molecular target: protein disulfide isomerase (PDI, PDIA1) (Homo sapiens, UniProt P07237)
Test: surface plasmon resonance
Format: binding

Chain of protein disulfide isomerase (PDI, PDIA1) (P07237 18-508): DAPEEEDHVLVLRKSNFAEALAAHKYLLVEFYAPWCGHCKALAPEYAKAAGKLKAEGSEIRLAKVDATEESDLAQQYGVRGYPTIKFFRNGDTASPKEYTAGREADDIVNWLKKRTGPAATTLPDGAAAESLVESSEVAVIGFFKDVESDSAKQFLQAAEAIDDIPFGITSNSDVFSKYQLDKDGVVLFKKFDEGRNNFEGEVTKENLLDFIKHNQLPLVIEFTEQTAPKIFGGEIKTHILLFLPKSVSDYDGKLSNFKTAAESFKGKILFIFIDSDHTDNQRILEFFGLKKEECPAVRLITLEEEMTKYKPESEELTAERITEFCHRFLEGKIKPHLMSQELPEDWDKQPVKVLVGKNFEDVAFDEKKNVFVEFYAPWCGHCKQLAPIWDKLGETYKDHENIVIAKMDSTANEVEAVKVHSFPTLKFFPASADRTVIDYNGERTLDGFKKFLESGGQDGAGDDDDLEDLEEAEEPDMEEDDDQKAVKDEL

**Q.** With `Cc1c(-c2ccc(O)cc2)n(Cc2ccc(OCCN3CCCCCC3)cc2)c2ccc(O)cc12` [BAZ, bazedoxifene] as the molecule, how does the Kd read?
**A.** 3.3 nM
